In one experiment the test system is HepG2. Kind of experiment: Compound was tested for inhibition of cholesterol biosynthesis in HepG2 cells from [14C]- acetate. The format is functional, cell-based. To be noted: Homo sapiens.
`CC1(C)[C@@H](O)CC[C@]2(C)CCCC[C@@H]12` gave an IC50 of 28 µM.
Regarding `CCCCCCCCCCCCS(=O)(=O)N1CC[C@H]2[C@H](C)[C@@H](O)CC[C@]2(C)C1`, the IC50 was 52 µM.
Consider `CCCCCCCCCCCC(=S)N1CC[C@H]2[C@H](C)[C@@H](O)CC[C@]2(C)C1`, for which the half-maximal inhibitory concentration (IC50) is 2 µM.
The molecule `C[C@@H]1[C@@H](O)CC[C@]2(C)CNCC[C@@H]12` displayed an IC50 of 19 µM.
Molecule `CCCCCCCCCCCCN1CC[C@H]2[C@H](C)[C@@H](O)CC[C@]2(C)C1` gave a 50% inhibitory concentration (IC50) of 0.01 µM.
As for `CC(C)CCCC(C)CCCC(C)N1CC[C@H]2[C@H](C)[C@@H](O)CC[C@]2(C)C1` (stereo not given in full), the IC50 stood at 0.07 µM.
`CC(=O)N1CC[C@H]2[C@H](C)[C@@H](O)CC[C@]2(C)C1`: the IC50 was above 100 µM.
On the same count and under the same terms, in the case of `CCCCCCCCCCCC[S+]([O-])N1CC[C@H]2[C@H](C)[C@@H](O)CC[C@]2(C)C1` (stereo not given in full) it was 2.8 µM; in that of `CCCCCCCCCCCC(=O)N1CC[C@H]2[C@H](C)[C@@H](O)CC[C@]2(C)C1`, 0.7 µM.

The target of a further experiment is T1, Lanosterol synthase (Rattus norvegicus, UniProt P48450).
T1 sequence (P48450 whole entry): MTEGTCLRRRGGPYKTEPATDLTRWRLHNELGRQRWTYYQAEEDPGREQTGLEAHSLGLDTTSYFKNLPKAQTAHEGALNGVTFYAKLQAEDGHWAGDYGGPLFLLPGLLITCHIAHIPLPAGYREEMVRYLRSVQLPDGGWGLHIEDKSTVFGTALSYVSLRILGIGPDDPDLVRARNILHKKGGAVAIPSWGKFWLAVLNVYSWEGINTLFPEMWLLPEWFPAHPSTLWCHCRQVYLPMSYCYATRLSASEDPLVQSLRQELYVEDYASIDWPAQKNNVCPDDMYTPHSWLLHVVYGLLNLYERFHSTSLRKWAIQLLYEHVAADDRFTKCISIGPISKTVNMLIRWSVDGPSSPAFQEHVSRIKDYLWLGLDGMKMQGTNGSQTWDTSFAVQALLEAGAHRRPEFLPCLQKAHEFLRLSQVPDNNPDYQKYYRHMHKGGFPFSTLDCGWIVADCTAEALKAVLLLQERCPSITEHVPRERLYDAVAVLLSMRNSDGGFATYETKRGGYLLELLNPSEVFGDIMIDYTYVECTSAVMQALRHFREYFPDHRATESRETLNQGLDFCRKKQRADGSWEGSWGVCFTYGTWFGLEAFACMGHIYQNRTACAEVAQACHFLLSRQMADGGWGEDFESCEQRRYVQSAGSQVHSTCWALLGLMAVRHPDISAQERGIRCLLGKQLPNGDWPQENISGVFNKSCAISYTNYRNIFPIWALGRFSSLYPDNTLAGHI
Kind of experiment: Inhibitory activity against Oxidosqualene-lanosterol cyclase enzyme obtained from rat liver; d = in a microsomal assay fails to inhibit OSC (Oxidosqualene cyclase). Type of experiment: microsomes, Microsome.
Conditions: not given
Turning to `C[C@@H]1[C@@H](O)CC[C@]2(C)CNCC[C@@H]12`, the half-inhibitory concentration (IC50) entry is recorded as “No inhibition”.

Source of the values: ChEMBL document CHEMBL1126135, “N-(1-oxododecyl)-4 alpha,10-dimethyl-8-aza-trans-decal-3 beta-ol: a potent competitive inhibitor of 2,3-oxidosqualene cyclase” (J Med Chem, 1992).
